Measurements: US20250040554A1, “NEW USES OF PHENMEDIPHAM AND HERBICIDAL COMBINATIONS COMPRISING PHENMEDIPHAM” (BAYER AKTIENGESELLSCHAFT, priority 2021, published 2025)

Key:
[1] = system: corn (Zea mays subsp. amylacea, ZEAMA); assay: Greenhouse selectivity trial, post-emergence, corn; assay type: in vivo; settings: 8 DAA
Description: (§1) The respective (combinations of) materials were applied to weed plants in the greenhouse or in the field at the respective growth stage indicated hereinafter for the different weed species mentioned below. The respective (combinations of) active ingredients were also applied to corn, cotton and soybean crop plants, and the selectivity (damage) in these crop plants rated (assessed).
(§2) Visual scoring of the damage to the trial plants took place after the time mentioned in the respective Table—indicated in number of Days After Application (DAA). Damage and development of all above-ground parts of the respective plants was recorded. Visual rating was done on a percentage scale in relation to the untreated control (100%=all plants dead; 50%=green plant biomass reduced by 50%, and 0%=no discernible difference=like control plot).
(§3) The trials in the greenhouse were sprayed with an application volume of 300 L/ha with an automated track sprayer. The plots in the field were sprayed with an application volume of 140 L/ha with a hand held spray boom.
(§4) In greenhouse selectivity trials and trials herbicidal activity trials against weed plants were investigated in post-emergence application of the respective material(s).
(§5) Phenmedipham was applied at varying application rates (Dose Rate) to the crop plants of corn (Zea mays subsp. amylacea, ZEAMA), soybean (Glycine max, GLXMA) and cotton (Gossypium hirsutum, GOSHI) at a BBCH growth stage of the plants of BBCH 13 and the crop safety (crop injury, damage) assessed. The results are shown in Table 1 as the % damage when assessed 8 days after application (8 DAA).
(§6) In all the selectivity trials of Table 1 the adjuvant Mero® (rapeseed oil methyl ester) was added to the respective spray mixture in an amount corresponding to 1 L/ha.

[2] = system: cotton (Gossypium hirsutum, GOSHI); assay: Greenhouse selectivity trial, post-emergence, cotton; assay type: in vivo; settings: 8 DAA
Description: as §1, §2, §3, §4, §5, §6

[3] = system: soybean (GLXMA); assay: Damage in soybean in the field trials of Tables 4a to 4e; assay type: in vivo, Glycine max; settings: PMP applied to GLXMA at growth stage BBCH 14, field trials of Tables 4a to 4e, each case
Procedure: In the field trials of Tables 4a to 4e also the damage in soybean was assessed when PMP was applied to GLXMA at growth stage BBCH 14. The damage observed in each case was agronomically acceptable, i.e. below 15%.

COC(=O)Nc1cccc(OC(=O)Nc2cccc(C)c2)c1 [PMP, 3-[(methoxyformyl)amino]phenyl (3-methylphenyl)carbamate]
% damage ZEAMA (corn) ([1]; 12.5 g/ha): 0%
% damage ZEAMA (corn) ([1]; 25 g/ha): 0%
% damage ZEAMA (corn) ([1]; 75 g/ha): 7%
% damage ZEAMA (corn) ([1]; 125 g/ha): 0%
% damage ZEAMA (corn) ([1]; 200 g/ha): 15%
% damage ZEAMA (corn) ([1]; 300 g/ha): 30%
% damage GOSHI (cotton) ([2]; 12.5 g/ha): 0%
% damage GOSHI (cotton) ([2]; 25 g/ha): 0%
% damage GOSHI (cotton) ([2]; 75 g/ha): 3%
% damage GOSHI (cotton) ([2]; 125 g/ha): 6%
% damage GOSHI (cotton) ([2]; 200 g/ha): 6%
% damage GOSHI (cotton) ([2]; 300 g/ha): 14%
damage in soybean [3]: below 15%
